From patent US11078216B2, “Bisaryl amides as NRF2 activators” (GLAXOSMITHKLINE INTELLECTUAL PROPERTY DEVELOPMENT LIMITED, priority 2016, dated 2021)

System: NRF2 (NQO1 activity as marker for NRF2 activation), BEAS-2B cells
Test: BEAS-2B NQO1 MTT Assay
Format: cell-based
Conditions: Homo sapiens, EC50 of NQO1 specific activity induction, 48 hours incubation, read-out: EC50
Summary of the method: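 BEAS-2B cells were exposed to compound for 48 h at 37° C, 5% CO2, then lysed. NQO1 activity was measured kinetically by MTT reduction at 570 nm over 30 minutes; EC50 came from 3-parameter fit of Delta OD/min versus log concentration.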

Compound | EC50
CCCn1nnc2c(C)c([C@H](c3ccc(C)c(CN4C[C@@H](CC)Oc5ccccc5S4(=O)=O)c3)C(C)(C)C(=O)Nc3cccnc3)ccc21 [Example 85, (S)-3-(3-(((R)-4-Ethyl-1,1-dioxido-3,4-dihydro-2H-benzo[b][1,4,5]oxathiazepin-2-yl)methyl)-4-methylphenyl)-2,2-dimethyl-3-(4-methyl-1-propyl-1H-benzo[d][1,2,3]triazol-5-yl)-N-(pyridin-3-yl)propanamide] | 10 to 100 nM
CC[C@@H]1CN(Cc2cc([C@@H](c3ccc4c(nnn4CC)c3C)C(C)(C)C(=O)Nc3cnc(Cl)nc3)ccc2C)S(=O)(=O)c2cccnc2O1 [Example 86, (S)—N-(2-Chloropyrimidin-5-yl)-3-(3-(((R)-4-ethyl-1,1-dioxido-3,4-dihydro-2H-pyrido[2,3-b][1,4,5]oxathiazepin-2-yl)methyl)-4-methylphenyl)-3-(1-ethyl-4-methyl-1H-benzo[d][1,2,3]triazol-5-yl)-2,2-dimethylpropanamide] | 1 to 10 nM
CC[C@@H]1CN(Cc2cc([C@@H](c3ccc4c(nnn4CC)c3C)C(C)(C)C(N)=O)ccc2C)S(=O)(=O)c2ccccc2O1 [Example 87, (S)-3-(3-(((R)-4-Ethyl-1,1-dioxido-3,4-dihydro-2H-benzo[b][1,4,5]oxathiazepin-2-yl)methyl)-4-methylphenyl)-3-(1-ethyl-4-methyl-1H-benzo[d][1,2,3]triazol-5-yl)-2,2-dimethylpropanamide] | 1 to 10 nM
CC[C@H]1Cc2ccc(C(F)(F)F)cc2S(=O)(=O)N(Cc2cc([C@@H](c3ccc4c(nnn4CC)c3C)C(C)(C)C(N)=O)ccc2C)C1 [Example 88, (S)-3-(3-(((S)-4-ethyl-1,1-dioxido-8-(trifluoromethyl)-4,5-dihydrobenzo[f][1,2]thiazepin-2(3H)-yl)methyl)-4-methylphenyl)-3-(1-ethyl-4-methyl-1H-benzo[d][1,2,3]triazol-5-yl)-2,2-dimethylpropanamide] | 1 to 10 nM
CC[C@@H]1CN(Cc2cc([C@@H](c3ccc4c(nnn4C)c3C)C(C)(C)C(N)=O)ccc2Cl)S(=O)(=O)c2ccccc2O1 [Example 89, (S)-3-(4-chloro-3-(((R)-4-ethyl-1,1-dioxido-3,4-dihydro-2H-benzo[b][1,4,5]oxathiazepin-2-yl)methyl)phenyl)-3-(1,4-dimethyl-1H-benzo[d][1,2,3]triazol-5-yl)-2,2-dimethylpropanamide] | 10 to 100 nM
CC[C@H]1Cc2ccc(C(F)(F)F)cc2S(=O)(=O)N(Cc2cc([C@@H](OCc3cn(CC)nn3)C(C)(C)C(N)=O)ccc2C)C1 [Example 90, (R)-3-(3-(((S)-4-ethyl-1,1-dioxido-8-(trifluoromethyl)-4,5-dihydrobenzo[f][1,2]thiazepin-2(3H)-yl)methyl)-4-methylphenyl)-3-((1-ethyl-1H-1,2,3-triazol-4-yl)methoxy)-2,2-dimethylpropanamide] | 100 to 1000 nM
CC[C@@H]1CN(Cc2cc([C@@H](c3ccc4c(nnn4CC)c3C)C(C)(C)C(=O)Nc3cncnc3)ccc2C)S(=O)(=O)c2ccccc2O1 [Example 91, (S)-3-(3-(((R)-4-Ethyl-1,1-dioxido-3,4-dihydro-2H-benzo[b][1,4,5]oxathiazepin-2-yl)methyl)-4-methylphenyl)-3-(1-ethyl-4-methyl-1H-benzo[d][1,2,3]triazol-5-yl)-2,2-dimethyl-N-(pyrimidin-5-yl)propanamide] | 1 to 10 nM
CC[C@H]1Cc2ccc(C(F)(F)F)cc2S(=O)(=O)N(Cc2cc([C@@H](c3ccc4c(nnn4CC)c3C)C(C)(C)C(=O)Nc3cncnc3)ccc2C)C1 [Example 92, (S)-3-(3-(((S)-4-Ethyl-1,1-dioxido-8-(trifluoromethyl)-4,5-dihydrobenzo[f][1,2]thiazepin-2(3H)-yl)methyl)-4-methylphenyl)-3-(1-ethyl-4-methyl-1H-benzo[d][1,2,3]triazol-5-yl)-2,2-dimethyl-N-(pyrimidin-5-yl)propanamide] | 1 to 10 nM
CC[C@H]1Cc2ccccc2S(=O)(=O)N(Cc2cc([C@@H](c3ccc4c(nnn4CC)c3C)C(C)(C)C(=O)Nc3cncnc3)ccc2C)C1 [Example 93, (S)-3-(3-(((S)-4-Ethyl-1,1-dioxido-4,5-dihydrobenzo[f][1,2]thiazepin-2(3H)-yl)methyl)-4-methylphenyl)-3-(1-ethyl-4-methyl-1H-benzo[d][1,2,3]triazol-5-yl)-2,2-dimethyl-N-(pyrimidin-5-yl)propanamide] | 1 to 10 nM
CCn1nnc2c(C)c([C@H](c3ccc(C)c(CN4C[C@@H](C)Cc5cc(C(F)(F)F)ccc5S4(=O)=O)c3)C(C)(C)C(=O)Nc3cncnc3)ccc21 [Example 94, (S)-3-(1-Ethyl-4-methyl-1H-benzo[d][1,2,3]triazol-5-yl)-2,2-dimethyl-3-(4-methyl-3-(((S)-4-methyl-1,1-dioxido-7-(trifluoromethyl)-4,5-dihydrobenzo[f][1,2]thiazepin-2(3H)-yl)methyl)phenyl)-N-(pyrimidin-5-yl)propanamide] | 1 to 10 nM
CC[C@H]1Cc2ncccc2S(=O)(=O)N(Cc2cc([C@@H](c3ccc4c(nnn4CC)c3C)C(C)(C)C(=O)Nc3cncnc3)ccc2C)C1 [Example 95, (S)-3-(3-(((S)-4-Ethyl-1,1-dioxido-4,5-dihydropyrido[2,3-f][1,2]thiazepin-2(3H)-yl)methyl)-4-methylphenyl)-3-(1-ethyl-4-methyl-1H-benzo[d][1,2,3]triazol-5-yl)-2,2-dimethyl-N-(pyrimidin-5-yl)propanamide] | 1 to 10 nM
CC[C@@H]1CN(Cc2cc([C@@H](c3ccc4c(nnn4CC)c3C)C(C)(C)C(=O)Nc3cncnc3)ccc2C)S(=O)(=O)c2cnccc2O1 [Example 96, (S)-3-(3-(((R)-4-Ethyl-1,1-dioxido-3,4-dihydro-2H-pyrido[4,3-b][1,4,5]oxathiazepin-2-yl)methyl)-4-methylphenyl)-3-(1-ethyl-4-methyl-1H-benzo[d][1,2,3]triazol-5-yl)-2,2-dimethyl-N-(pyrimidin-5-yl)propanamide] | 1 to 10 nM
CC[C@@H]1CN(Cc2cc([C@@H](c3ccc4c(nnn4CC)c3C)C(C)(C)C(=O)Nc3cncnc3)ccc2C)S(=O)(=O)c2ccc(Br)cc2O1 [Example 97, (S)-3-(3-(((R)-7-Bromo-4-ethyl-1,1-dioxido-3,4-dihydro-2H-benzo[b][1,4,5]oxathi-azepin-2-yl)methyl)-4-methylphenyl)-3-(1-ethyl-4-methyl-1H-benzo[d][1,2,3]triazol-5-yl)-2,2-dimethyl-N-(pyrimidin-5-yl)propanamide] | 1 to 10 nM
CC[C@@H]1CN(Cc2cc([C@@H](c3ccc4c(nnn4CC)c3C)C(C)(C)C(=O)Nc3cncnc3)ccc2C)S(=O)(=O)c2cc(Br)ccc2O1 [Example 98, (S)-3-(3-(((R)-8-Bromo-4-ethyl-1,1-dioxido-3,4-dihydro-2H-benzo[b][1,4,5]oxathi-azepin-2-yl)methyl)-4-methylphenyl)-3-(1-ethyl-4-methyl-1H-benzo[d][1,2,3]triazol-5-yl)-2,2-dimethyl-N-(pyrimidin-5-yl)propanamide] | 1 to 10 nM
CC[C@@H]1CN(Cc2cc([C@@H](c3ccc4c(nnn4CC)c3C)C(C)(C)NC(N)=O)ccc2C)S(=O)(=O)c2ccccc2O1 [Example 99, 1-((S)-1-(3-(((R)-4-ethyl-1,1-dioxido-3,4-dihydro-2H-benzo[b][1,4,5]oxathiazepin-2-yl)methyl)-4-methylphenyl)-1-(1-ethyl-4-methyl-1H-benzo[d][1,2,3]triazol-5-yl)-2-methylpropan-2-yl)urea] | 100 to 1000 nM
